Columns and labels:
persian speedwell = assay: Test Example 5: herbicidal effect by foliage application, plastic box (Table 20, symbol R); type: in vivo, Persian speedwell (Veronica persica); conditions: foliage application, three weeks after application
How it was run: (§1)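 Sow seeds spot-wise in sterilized diluvial soil; cover with ~1.5 cm soil. Grow 14 days in greenhouse, 25° C. to 30° C. Spray foliage with emulsion diluted to predetermined amount. Rate effect after 3 weeks.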

wild oat [1] = assay: Test Example 4: herbicidal effect by soil treatment (Table 19, symbol I); type: in vivo, wild oat (Avena fatua)
How it was run: (§2)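 Soil-surface application: an emulsion agent diluted with water to the predetermined dose is sprayed uniformly over seeds lying under roughly 1.5 cm of sterilized diluvial soil. Boxes stay in a greenhouse at 25° C. to 30° C. Three weeks later, each species is graded on previously defined criteria.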

oval-leafed pondweed [2] = assay: Test Example 2: herbicidal activity, application during weed generation under submerged conditions (Table 17, symbol C); type: in vivo, oval-leafed pondweed (Monochoria vaginalis); conditions: application during weed generation, submerged conditions
How it was run: (§3)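 3-wk visual-criteria score after one water-surface dose. Emulsion formulation, water-diluted to set rate; applied at 1–2 leaf stage; alluvial soil, 4 cm standing water; seeds co-sown; greenhouse 25–30° C.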

oval-leafed pondweed [3] = assay: Test Example 1: herbicidal activity, application before weed generation under submerged conditions (Table 16, symbol C); type: in vivo, oval-leafed pondweed (Monochoria vaginalis)
How it was run: (§4)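 Alluvial soil was flooded to 4 cm depth, weed seeds were sown mixed and 2.5-leaf rice seedlings were transplanted. On sowing day, the compound's emulsion, diluted in water to a set dose, was applied to the water surface. Plants grew at 25–30 °C and were scored 0–5 after three weeks.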

redroot pigweed = assay: Test Example 4: herbicidal effect by soil treatment (Table 19, symbol N); type: in vivo, redroot pigweed (Amaranthus retroflexus)
How it was run: as §2

wild oat [4] = assay: Test Example 5: herbicidal effect by foliage application, plastic box (Table 20, symbol I); type: in vivo, wild oat (Avena fatua); conditions: foliage application, three weeks after application
How it was run: as §1

chickweed [5] = assay: Test Example 4: herbicidal effect by soil treatment (Table 19, symbol P); type: in vivo, common chickweed (Stellaria media)
How it was run: as §2

chickweed [6] = assay: Test Example 5: herbicidal effect by foliage application, plastic box (Table 20, symbol P); type: in vivo, common chickweed (Stellaria media); conditions: foliage application, three weeks after application
How it was run: as §1

barnyard grass [7] = assay: Test Example 4: herbicidal effect by soil treatment (Table 19, symbol H); type: in vivo, barnyard grass (Echinochloa crus-galli)
How it was run: as §2

windgrass = assay: Test Example 5: herbicidal effect by foliage application, plastic box (Table 20, symbol L); type: in vivo, windgrass (Apera spica-venti); conditions: foliage application, three weeks after application
How it was run: as §1

Japanese bulrush [8] = assay: Test Example 1: herbicidal activity, application before weed generation under submerged conditions (Table 16, symbol B); type: in vivo, Japanese bulrush (Schoenoplectus juncoides)
How it was run: as §4

southern crabgrass = assay: Test Example 5: herbicidal effect by foliage application, plastic box (Table 20, symbol F); type: in vivo, southern crabgrass (Digitaria ciliaris); conditions: foliage application, three weeks after application
How it was run: as §1

green foxtail [9] = assay: Test Example 5: herbicidal effect by foliage application, plastic box (Table 20, symbol G); type: in vivo, green foxtail (Setaria viridis); conditions: foliage application, three weeks after application
How it was run: as §1

barnyard grass [10] = assay: Test Example 5: herbicidal effect by foliage application, plastic box (Table 20, symbol H); type: in vivo, barnyard grass (Echinochloa crus-galli); conditions: foliage application, three weeks after application
How it was run: as §1

Japanese bulrush [11] = assay: Test Example 2: herbicidal activity, application during weed generation under submerged conditions (Table 17, symbol B); type: in vivo, Japanese bulrush (Schoenoplectus juncoides); conditions: application during weed generation, submerged conditions
How it was run: as §3

green foxtail [12] = assay: Test Example 4: herbicidal effect by soil treatment (Table 19, symbol G); type: in vivo, green foxtail (Setaria viridis)
How it was run: as §2

SMILES	R: persian speedwell, herbicidal effect (persian speedwell; AAH 320 g/ha)	I: wild oat, herbicidal effect rating (wild oat [1]; AAH 320 g/ha)	herbicidal effect rating, C: oval-leafed pondweed (oval-leafed pondweed [2]; AAH 320 g/ha)	Herbicidal effect on C: oval-leafed pondweed (grade 0-5) (oval-leafed pondweed [3]; 320 g/ha applied herbicide)	N: redroot pigweed, herbicidal effect rating (redroot pigweed; AAH 320 g/ha)	I: wild oat, herbicidal effect (wild oat [4]; AAH 320 g/ha)	P: chickweed, herbicidal effect rating (chickweed [5]; AAH 320 g/ha)	P: chickweed, herbicidal effect (chickweed [6]; AAH 320 g/ha)	H: barnyard grass, herbicidal effect rating (barnyard grass [7]; AAH 320 g/ha)	L: windgrass, herbicidal effect (windgrass; AAH 320 g/ha)	Herbicidal effect on B: Japanese bulrush (grade 0-5) (Japanese bulrush [8]; 320 g/ha applied herbicide)	F: southern crabgrass, herbicidal effect (southern crabgrass; AAH 320 g/ha)	G: green foxtail, herbicidal effect (green foxtail [9]; AAH 320 g/ha)	H: barnyard grass, herbicidal effect (barnyard grass [10]; AAH 320 g/ha)	herbicidal effect rating, B: Japanese bulrush (Japanese bulrush [11]; AAH 320 g/ha)	G: green foxtail, herbicidal effect rating (green foxtail [12]; AAH 320 g/ha)	other results
Cc1nn(C)c(=O)c(-c2c(-c3ccc(OCc4ccccc4)cc3)sc3ccccc23)c1O [1-133]	5 (Herbicidal rate of 90% or more (almost completely withered))	0 (Herbicidal rate of 5% or less (almost no effect))	3 (Herbicidal rate of 40% or more and less than 70%)	3 (Herbicidal rate of 40% or more and less than 70%)	5 (Herbicidal rate of 90% or more (almost completely withered))	0 (Herbicidal rate of 5% or less (almost no effect))	0 (Herbicidal rate of 5% or less (almost no effect))	5 (Herbicidal rate of 90% or more (almost completely withered))	2 (Herbicidal rate of 20% or more and less than 40%)	0 (Herbicidal rate of 5% or less (almost no effect))	5 (Herbicidal rate of 90% or more (almost completely withered))	3 (Herbicidal rate of 40% or more and less than 70%)	5 (Herbicidal rate of 90% or more (almost completely withered))	5 (Herbicidal rate of 90% or more (almost completely withered))	3 (Herbicidal rate of 40% or more and less than 70%)	3 (Herbicidal rate of 40% or more and less than 70%)	–
Cc1nn(C)c(=O)c(-c2c(-c3ccc(OCC4CC4(F)F)cc3)sc3ccccc23)c1O (centres unmarked) [1-138]	5 (Herbicidal rate of 90% or more (almost completely withered))	0 (Herbicidal rate of 5% or less (almost no effect))	0 (Herbicidal rate of 5% or less (almost no effect))	3 (Herbicidal rate of 40% or more and less than 70%)	5 (Herbicidal rate of 90% or more (almost completely withered))	0 (Herbicidal rate of 5% or less (almost no effect))	4 (Herbicidal rate of 70% or more and less than 90%)	5 (Herbicidal rate of 90% or more (almost completely withered))	5 (Herbicidal rate of 90% or more (almost completely withered))	5 (Herbicidal rate of 90% or more (almost completely withered))	3 (Herbicidal rate of 40% or more and less than 70%)	0 (Herbicidal rate of 5% or less (almost no effect))	3 (Herbicidal rate of 40% or more and less than 70%)	5 (Herbicidal rate of 90% or more (almost completely withered))	3 (Herbicidal rate of 40% or more and less than 70%)	4 (Herbicidal rate of 70% or more and less than 90%)	–
CSCCOc1ccc(-c2sc3ccccc3c2-c2c(O)c(C)nn(C)c2=O)cc1 [1-141]	5 (Herbicidal rate of 90% or more (almost completely withered))	0 (Herbicidal rate of 5% or less (almost no effect))	0 (Herbicidal rate of 5% or less (almost no effect))	0 (Herbicidal rate of 5% or less (almost no effect))	5 (Herbicidal rate of 90% or more (almost completely withered))	5 (Herbicidal rate of 90% or more (almost completely withered))	4 (Herbicidal rate of 70% or more and less than 90%)	5 (Herbicidal rate of 90% or more (almost completely withered))	4 (Herbicidal rate of 70% or more and less than 90%)	5 (Herbicidal rate of 90% or more (almost completely withered))	0 (Herbicidal rate of 5% or less (almost no effect))	5 (Herbicidal rate of 90% or more (almost completely withered))	5 (Herbicidal rate of 90% or more (almost completely withered))	5 (Herbicidal rate of 90% or more (almost completely withered))	3 (Herbicidal rate of 40% or more and less than 70%)	5 (Herbicidal rate of 90% or more (almost completely withered))	–
Cc1nn(C)c(=O)c(-c2c(-c3ccc(OCC4CC4)cc3)sc3ccccc23)c1O [1-142]	5 (Herbicidal rate of 90% or more (almost completely withered))	0 (Herbicidal rate of 5% or less (almost no effect))	0 (Herbicidal rate of 5% or less (almost no effect))	5 (Herbicidal rate of 90% or more (almost completely withered))	4 (Herbicidal rate of 70% or more and less than 90%)	0 (Herbicidal rate of 5% or less (almost no effect))	2 (Herbicidal rate of 20% or more and less than 40%)	5 (Herbicidal rate of 90% or more (almost completely withered))	3 (Herbicidal rate of 40% or more and less than 70%)	1 (Herbicidal rate of 5% or more and less than 20%)	5 (Herbicidal rate of 90% or more (almost completely withered))	1 (Herbicidal rate of 5% or more and less than 20%)	2 (Herbicidal rate of 20% or more and less than 40%)	3 (Herbicidal rate of 40% or more and less than 70%)	2 (Herbicidal rate of 20% or more and less than 40%)	0 (Herbicidal rate of 5% or less (almost no effect))	–
COCCOc1ccc(-c2sc3ccccc3c2-c2c(O)c(C)nn(C)c2=O)cc1 [1-148]	–	–	–	–	–	–	–	–	–	–	–	–	–	–	–	–	R: persian speedwell, herbicidal effect (persian speedwell; AAH 368 g/ha): 5 (Herbicidal rate of 90% or more (almost completely withered)); I: wild oat, herbicidal effect rating (wild oat [1]; AAH 368 g/ha): 2 (Herbicidal rate of 20% or more and less than 40%); herbicidal effect rating, C: oval-leafed pondweed (oval-leafed pondweed [2]; AAH 368 g/ha): 1 (Herbicidal rate of 5% or more and less than 20%); Herbicidal effect on C: oval-leafed pondweed (grade 0-5) (oval-leafed pondweed [3]; 368 g/ha applied herbicide): 3 (Herbicidal rate of 40% or more and less than 70%); N: redroot pigweed, herbicidal effect rating (redroot pigweed; AAH 368 g/ha): 5 (Herbicidal rate of 90% or more (almost completely withered)); I: wild oat, herbicidal effect (wild oat [4]; AAH 368 g/ha): 4 (Herbicidal rate of 70% or more and less than 90%); P: chickweed, herbicidal effect rating (chickweed [5]; AAH 368 g/ha): 5 (Herbicidal rate of 90% or more (almost completely withered)); P: chickweed, herbicidal effect (chickweed [6]; AAH 368 g/ha): 5 (Herbicidal rate of 90% or more (almost completely withered)); H: barnyard grass, herbicidal effect rating (barnyard grass [7]; AAH 368 g/ha): 5 (Herbicidal rate of 90% or more (almost completely withered)); L: windgrass, herbicidal effect (windgrass; AAH 368 g/ha): 4 (Herbicidal rate of 70% or more and less than 90%); Herbicidal effect on B: Japanese bulrush (grade 0-5) (Japanese bulrush [8]; 368 g/ha applied herbicide): 3 (Herbicidal rate of 40% or more and less than 70%); F: southern crabgrass, herbicidal effect (southern crabgrass; AAH 368 g/ha): 5 (Herbicidal rate of 90% or more (almost completely withered)); G: green foxtail, herbicidal effect (green foxtail [9]; AAH 368 g/ha): 5 (Herbicidal rate of 90% or more (almost completely withered)); H: barnyard grass, herbicidal effect (barnyard grass [10]; AAH 368 g/ha): 5 (Herbicidal rate of 90% or more (almost completely withered)); herbicidal effect rating, B: Japanese bulrush (Japanese bulrush [11]; AAH 368 g/ha): 3 (Herbicidal rate of 40% or more and less than 70%); G: green foxtail, herbicidal effect rating (green foxtail [12]; AAH 368 g/ha): 5 (Herbicidal rate of 90% or more (almost completely withered))

Reference: patent US20230085307A1, “PYRIDAZINONE COMPOUND AND HERBICIDE” (NISSAN CHEMICAL CORPORATION, priority 2019, published 2023)
